According to ChEMBL document CHEMBL6153032, “Discovery of a highly potent, N-terminal domain-targeting degrader of AR-FL/AR-V7 for the treatment of prostate cancer” (Eur J Med Chem, 2025):
Calls of active or inactive are those of the source. No cut-off for these calls is given here.

Tests used:
[1] = target: T1, Protein cereblon/Androgen receptor (Homo sapiens, UniProt P10275+Q96SW2); experiment: PROTAC activity at full length Androgen receptor/CRBN in human LNCaP cells assessed as reduction in full length androgen receptor level at 1 uM by Western blot analysis; format: cell-based; conditions: time <= 4.0 hrs
T1 sequence (P10275 whole entry, looked up): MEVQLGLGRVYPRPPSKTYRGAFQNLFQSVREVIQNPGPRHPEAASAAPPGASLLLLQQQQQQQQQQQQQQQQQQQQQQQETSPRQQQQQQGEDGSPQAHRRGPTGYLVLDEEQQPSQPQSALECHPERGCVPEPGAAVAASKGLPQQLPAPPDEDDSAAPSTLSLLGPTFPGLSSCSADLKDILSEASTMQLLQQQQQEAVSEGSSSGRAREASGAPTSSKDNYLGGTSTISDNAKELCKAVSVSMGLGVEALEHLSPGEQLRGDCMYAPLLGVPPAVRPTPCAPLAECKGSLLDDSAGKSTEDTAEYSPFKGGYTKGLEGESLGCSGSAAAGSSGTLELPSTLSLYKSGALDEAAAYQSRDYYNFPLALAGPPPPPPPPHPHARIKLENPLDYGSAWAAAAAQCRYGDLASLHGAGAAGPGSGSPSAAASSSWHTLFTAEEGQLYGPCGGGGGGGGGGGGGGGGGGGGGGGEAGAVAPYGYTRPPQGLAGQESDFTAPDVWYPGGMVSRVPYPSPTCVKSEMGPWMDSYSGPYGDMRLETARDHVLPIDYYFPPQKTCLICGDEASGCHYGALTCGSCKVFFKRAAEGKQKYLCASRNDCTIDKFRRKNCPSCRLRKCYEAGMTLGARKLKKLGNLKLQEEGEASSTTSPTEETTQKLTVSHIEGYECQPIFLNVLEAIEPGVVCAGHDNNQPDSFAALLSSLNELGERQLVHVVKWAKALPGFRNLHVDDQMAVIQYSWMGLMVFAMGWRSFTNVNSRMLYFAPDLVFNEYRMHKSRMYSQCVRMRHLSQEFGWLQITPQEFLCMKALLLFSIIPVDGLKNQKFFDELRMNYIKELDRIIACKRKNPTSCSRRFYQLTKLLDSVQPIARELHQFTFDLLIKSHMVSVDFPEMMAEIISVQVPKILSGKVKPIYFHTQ
T1 sequence (Q96SW2 whole entry, looked up): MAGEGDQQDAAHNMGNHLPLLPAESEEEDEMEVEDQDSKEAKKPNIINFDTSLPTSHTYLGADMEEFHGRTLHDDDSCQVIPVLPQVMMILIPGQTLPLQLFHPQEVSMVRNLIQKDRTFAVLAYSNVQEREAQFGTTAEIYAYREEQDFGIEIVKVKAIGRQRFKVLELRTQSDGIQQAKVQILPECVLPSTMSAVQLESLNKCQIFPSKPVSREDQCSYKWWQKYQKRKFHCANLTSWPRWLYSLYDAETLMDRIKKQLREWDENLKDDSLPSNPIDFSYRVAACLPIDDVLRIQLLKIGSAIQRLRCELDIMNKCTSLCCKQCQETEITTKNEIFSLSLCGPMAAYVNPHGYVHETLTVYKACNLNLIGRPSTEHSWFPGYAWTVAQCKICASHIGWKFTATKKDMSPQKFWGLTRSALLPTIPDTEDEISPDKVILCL

CWR22R [2] = experiment: Downregulation of PSA mRNA level in human 22Rv1 cells incubated for 24 hrs by qRT-PCR analysis; format: functional, cell-based; conditions: dose 100-500 nM
CWR22R [3] = experiment: Downregulation of KLK2 mRNA level in human 22Rv1 cells incubated for 24 hrs by qRT-PCR analysis; format: functional, cell-based; conditions: dose 100-500 nM
CWR22R [4] = experiment: Downregulation of UBE2C mRNA level in human 22Rv1 cells incubated for 24 hrs by qRT-PCR analysis; format: functional, cell-based; conditions: dose 100-500 nM
[5] = target: T1, Protein cereblon/Androgen receptor; experiment: PROTAC activity at full length Androgen receptor/CRBN in human 22Rv1 cells assessed as induction of full length Androgen receptor degradation at 0.1 uM incubated for 24 hrs in presence of CHX by Western blot analysis; format: cell-based
[6] = tested on: Protein cereblon/Androgen receptor (Homo sapiens), P10275+Q96SW2 [UNDEFINED MUTATION]; experiment: PROTAC activity at AR-V7/CRBN in human 22Rv1 cells assessed as induction of AR-V7 degradation at 0.1 uM incubated for 24 hrs in presence of CHX by Western blot analysis; format: cell-based; conditions: CWR22R
Sequence of Protein cereblon/Androgen receptor (Homo sapiens), P10275+Q96SW2 [UNDEFINED MUTATION] (P10275 whole entry, looked up, change not shown): as the sequence (P10275 whole entry, looked up) above
Sequence of Protein cereblon/Androgen receptor (Homo sapiens), P10275+Q96SW2 [UNDEFINED MUTATION] (Q96SW2 whole entry, looked up, change not shown): as the sequence (Q96SW2 whole entry, looked up) above

[7] = target: T1, Protein cereblon/Androgen receptor; experiment: PROTAC activity at full length Androgen receptor/CRBN in human 22Rv1 cells assessed as induction of full length androgen receptor degradation at 100 nM incubated for 12 hrs in presence of Thalidomide by Western blot analysis; format: cell-based
[8] = tested on: Protein cereblon/Androgen receptor (Homo sapiens), P10275+Q96SW2 [UNDEFINED MUTATION]; experiment: PROTAC activity at AR-V7/CRBN in human 22Rv1 cells assessed as induction of AR-V7 degradation at 100 nM incubated for 12 hrs in presence of MLN4924 by Western blot analysis; format: cell-based; conditions: CWR22R
[9] = target: T1, Protein cereblon/Androgen receptor; experiment: PROTAC activity at full length Androgen receptor/CRBN in human 22Rv1 cells assessed as induction of full length androgen receptor degradation at 100 nM incubated for 12 hrs in presence of MG132 by Western blot analysis; format: cell-based
LNCaP = experiment: Antiproliferative activity against human LNCaP cells assessed as cell viability incubated for 4 days by CCK-8 assay; format: functional, cell-based; conditions: 96 h
DU-145 = experiment: Antiproliferative activity against human DU-145 cells assessed as cell viability incubated for 4 days by CCK-8 assay; format: functional, cell-based; conditions: DU-145, 96 h
[10] = Antiproliferative activity against human RWPE-1 cells assessed as cell viability incubated for 4 days by CCK-8 assay; format: toxicity, cell-based
[11] = target: Protein cereblon/Estrogen receptor (Homo sapiens) (UniProt P03372+Q96SW2); experiment: PROTAC activity at CRBN/ERalpha in human 22Rv1 cells assessed as reduction in ERalpha protein level at 0.01 to 5 uM measured after 24 hrs by Western blot analysis; format: cell-based; conditions: dose 0.01-5 µM
Sequence of Protein cereblon/Estrogen receptor (Homo sapiens) (P03372 whole entry, looked up): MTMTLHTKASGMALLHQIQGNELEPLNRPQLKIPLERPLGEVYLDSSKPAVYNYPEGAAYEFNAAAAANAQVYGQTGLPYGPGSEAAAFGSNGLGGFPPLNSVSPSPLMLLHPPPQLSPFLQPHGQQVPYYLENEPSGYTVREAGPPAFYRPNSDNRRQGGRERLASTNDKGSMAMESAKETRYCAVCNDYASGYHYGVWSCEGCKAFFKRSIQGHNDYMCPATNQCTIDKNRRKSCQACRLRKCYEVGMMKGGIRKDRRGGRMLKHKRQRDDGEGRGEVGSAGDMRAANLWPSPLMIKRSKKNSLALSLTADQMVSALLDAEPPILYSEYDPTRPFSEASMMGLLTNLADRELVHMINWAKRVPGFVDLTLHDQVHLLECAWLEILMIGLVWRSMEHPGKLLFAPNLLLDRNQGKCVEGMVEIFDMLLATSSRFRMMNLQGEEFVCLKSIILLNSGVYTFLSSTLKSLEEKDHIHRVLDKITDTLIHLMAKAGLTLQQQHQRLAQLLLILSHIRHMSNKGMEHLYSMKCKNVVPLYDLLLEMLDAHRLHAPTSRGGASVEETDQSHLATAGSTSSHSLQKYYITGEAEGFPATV
Sequence of Protein cereblon/Estrogen receptor (Homo sapiens) (Q96SW2 whole entry, looked up): as the sequence (Q96SW2 whole entry, looked up) above

CWR22R [12] = experiment: Inhibition of colony formation in human 22Rv1 cells assessed as reduction in colony formation incubated for 14 days; format: functional, cell-based; conditions: dose 1-100 nM, time 14.0 day
CWR22R [13] = experiment: Induction of apoptosis in human 22Rv1 cells assessed as viable cells at 100 nM incubated for 48 hrs by Annexin V/FITC staining based flow cytometry analysis (reference value: 94.49%); format: functional; conditions: read-out: Activity
CWR22R [14] = experiment: Induction of apoptosis in human 22Rv1 cells assessed as early apoptotic cells at 100 nM incubated for 48 hrs by Annexin V/FITC staining based flow cytometry analysis (reference value: 2.08 %); format: functional
CWR22R [15] = experiment: Induction of apoptosis in human 22Rv1 cells assessed as necrotic cells at 100 nM incubated for 48 hrs by Annexin V/FITC staining based flow cytometry analysis (reference value: 2.31 %); format: functional
CWR22R [16] = experiment: Induction of apoptosis in human 22Rv1 cells assessed as viable cells at 500 nM incubated for 48 hrs by Annexin V/FITC staining based flow cytometry analysis (reference value: 94.49%); format: functional; conditions: read-out: Activity
CWR22R [17] = experiment: Induction of apoptosis in human 22Rv1 cells assessed as early apoptotic cells at 500 nM incubated for 48 hrs by Annexin V/FITC staining based flow cytometry analysis (reference value: 2.08 %); format: functional
CWR22R [18] = experiment: Induction of apoptosis in human 22Rv1 cells assessed as necrotic cells at 500 nM incubated for 48 hrs by Annexin V/FITC staining based flow cytometry analysis (reference value: 2.31 %); format: functional
CWR22R [19] = experiment: Induction of cell cycle arrest in human 22Rv1 cells assessed as accumulation of cells at S phase at 100 nM incubated for 24 hrs by PI staining based flow cytometry analysis (reference value: 28.73%); format: functional
CWR22R [20] = experiment: Induction of cell cycle arrest in human 22Rv1 cells assessed as accumulation of cells at G0/G1 phase at 500 nM incubated for 24 hrs by PI staining based flow cytometry analysis (reference value: 62.66%); format: functional
CWR22R [21] = experiment: Induction of cell cycle arrest in human 22Rv1 cells assessed as accumulation of cells at G2/M phase at 500 nM incubated for 24 hrs by PI staining based flow cytometry analysis (reference value: 8.61%); format: functional
[22] = Metabolic stability in human liver microsome assessed as intrinsic clearance measured upto 45 mins by LC/MS analysis; format: ADME; conditions: liver microsomes, read-out: CLH
[23] = Tmax in Sprague-Dawley rat 2 mg/kg, iv by LC-MS/MS analysis; format: ADME, organism-based; conditions: in vivo
[24] = AUC (0 to t) in Sprague-Dawley rat 2 mg/kg, iv by LC-MS/MS analysis; format: ADME, organism-based; conditions: in vivo
[25] = AUC (0 to infinity) in Sprague-Dawley rat 2 mg/kg, iv by LC-MS/MS analysis; format: ADME, organism-based; conditions: in vivo
[26] = MRT (0 to t) in Sprague-Dawley rat 2 mg/kg, iv by LC-MS/MS analysis; format: ADME, organism-based; conditions: in vivo
[27] = Clearance in Sprague-Dawley rat 2 mg/kg, iv by LC-MS/MS analysis; format: ADME, organism-based; conditions: in vivo
hERG = hERG (Homo sapiens, UniProt Q12809); experiment: Inhibition of hERG at 10 uM relative to control; format: toxicity
Sequence of hERG (Q12809 whole entry): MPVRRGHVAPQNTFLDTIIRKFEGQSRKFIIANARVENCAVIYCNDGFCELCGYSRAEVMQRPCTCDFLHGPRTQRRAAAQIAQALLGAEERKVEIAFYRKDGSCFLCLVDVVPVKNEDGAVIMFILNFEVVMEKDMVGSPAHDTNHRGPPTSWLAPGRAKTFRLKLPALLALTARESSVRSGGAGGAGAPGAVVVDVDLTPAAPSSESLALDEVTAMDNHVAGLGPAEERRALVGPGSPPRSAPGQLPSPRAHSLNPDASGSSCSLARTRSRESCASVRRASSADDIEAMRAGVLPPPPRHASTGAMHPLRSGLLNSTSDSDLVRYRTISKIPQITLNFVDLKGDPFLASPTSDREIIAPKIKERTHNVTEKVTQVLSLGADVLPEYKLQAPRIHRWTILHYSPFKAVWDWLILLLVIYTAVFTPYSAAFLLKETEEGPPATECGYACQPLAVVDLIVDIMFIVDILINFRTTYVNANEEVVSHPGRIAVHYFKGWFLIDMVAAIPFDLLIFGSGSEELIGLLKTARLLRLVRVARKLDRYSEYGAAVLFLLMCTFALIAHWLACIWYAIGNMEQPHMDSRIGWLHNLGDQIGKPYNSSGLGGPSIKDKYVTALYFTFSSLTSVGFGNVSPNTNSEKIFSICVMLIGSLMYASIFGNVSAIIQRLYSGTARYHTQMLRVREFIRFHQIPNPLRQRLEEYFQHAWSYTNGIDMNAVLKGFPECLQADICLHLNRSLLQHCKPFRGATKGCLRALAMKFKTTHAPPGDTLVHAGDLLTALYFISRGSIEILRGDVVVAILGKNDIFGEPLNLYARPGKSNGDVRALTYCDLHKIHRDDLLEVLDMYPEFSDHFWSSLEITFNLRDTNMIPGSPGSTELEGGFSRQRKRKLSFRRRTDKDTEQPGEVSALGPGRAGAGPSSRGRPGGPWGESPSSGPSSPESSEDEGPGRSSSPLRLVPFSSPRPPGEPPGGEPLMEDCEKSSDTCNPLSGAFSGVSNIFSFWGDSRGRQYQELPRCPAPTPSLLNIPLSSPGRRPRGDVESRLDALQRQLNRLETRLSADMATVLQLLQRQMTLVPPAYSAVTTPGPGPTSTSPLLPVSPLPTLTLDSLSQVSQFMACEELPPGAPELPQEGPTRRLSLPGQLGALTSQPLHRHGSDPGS

CWR22R [28] = experiment: Antitumor activity against human 22Rv1 cells xenografted in BALB/c nude mouse assessed as suppression of tumor growth at 10 mg/kg, iv administered once daily for 21 days; format: functional, organism-based; conditions: time 21.0 day
CWR22R [29] = experiment: Antitumor activity against human 22Rv1 cells xenografted in BALB/c nude mouse assessed as reduction in AR-v7 level at 10 mg/kg, iv administered once daily for 21 days; format: functional, organism-based; conditions: time 21.0 day
[30] = Toxicity in BALB/c mouse assessed as heart damage at 10 mg/kg, iv administered once daily for 21 days by H and E staining based analysis; format: organism-based; conditions: in vivo, 504 h, time 21 day
[31] = Toxicity in BALB/c mouse assessed as liver damage at 10 mg/kg, iv administered once daily for 21 days by H and E staining based analysis; format: organism-based; conditions: in vivo, 504 h, time 21 day
[32] = Toxicity in BALB/c mouse assessed as spleen damage at 10 mg/kg, iv administered once daily for 21 days by H and E staining based analysis; format: organism-based; conditions: in vivo, 504 h, time 21 day
[33] = Toxicity in BALB/c mouse assessed as lung damage at 10 mg/kg, iv administered once daily for 21 days by H and E staining based analysis; format: organism-based; conditions: in vivo, 504 h, time 21 day

CC(C)(c1ccc(OCCNc2cccc3c2C(=O)N(C2CCC(=O)NC2=O)C3=O)cc1)c1ccc(OCc2cccc(N3CCOCC3)n2)cc1 (stereo unspecified)
Activity [1]: Dose-dependent-effect | Activity (CWR22R [2]): Dose-dependent-effect | Activity (CWR22R [3]): Dose-dependent-effect | Activity (CWR22R [4]): Dose-dependent-effect | Activity [5]: Active | Activity [6]: Active | Activity [7]: Active | Activity [8]: Active | Activity [9]: Active | IC50 (LNCaP): 0.176 µM | IC50 (DU-145): > 80 µM | IC50 at 4 days [10]: > 80 µM | Activity [11]: Active | inhibition (CWR22R [12]): Dose-dependent-effect | viability at 0.1 µM (CWR22R [13]): 71% | Activity (CWR22R [14]): 14.57% | Activity (CWR22R [15]): 2.13% | viability at 0.5 µM (CWR22R [16]): 65.1% | Activity (CWR22R [17]): 16.93% | Activity (CWR22R [18]): 2.4% | Activity (CWR22R [19]): 43.39% | Activity (CWR22R [20]): 39.88% | Activity (CWR22R [21]): 21.54% | CLint scaled [22]: 43.1 mL/min/kg | Tmax [23]: 4.98 min | AUC(0-t) [24]: 2210 ng·h/mL | AUC(0-inf) [25]: 2220 ng·h/mL | MRT last [26]: 32.4 min | clearance [27]: 15.1 mL/min/kg | inhibition at 10 µM (hERG): < 40% | Activity (CWR22R [28]): Active | Activity (CWR22R [29]): Active | Activity [30]: Non-toxic | Activity [31]: Non-toxic | Activity [32]: Non-toxic | Activity [33]: Non-toxic
